# Data reported in patent US7709458B2, “Method for inhibiting cancer cell proliferation or increasing cancer cell apoptosis” (priority 2004, dated 2010).
# Assays:
# [1] = Solubility and stability of c-di-GMP; format: physicochemical
# [2] = tested on: NRK 52E cells (normal rat kidney cells); assay: Cytotoxicity on normal rat kidney cells using the Alamar blue assay; format: cell-based; conditions: for decrease in fluorescence: 200 μM
# Description: Toxicity assays in normal rat kidney cells (NRK). The toxicity of c-di-GMP in independent cell lines was tested. In these studies, acute (24 and 72 h) toxicity in NRK 52 E cells (normal rat kidney cells) was determined using the Alamar blue assay. NRK 52E cells are a rat renal tubule epithelial cell line originally cloned from a mixed culture termed NRK. The Alamar blue assay is designed to measure the proliferation of cell lines and is used routinely to determine the cytotoxicity of various chemicals. […] It is minimally toxic to most living cells.
# Chemical toxicity on normal rat kidney cells. To assess chemical toxicity, the Alamar blue assay was performed using NRK 52E cells plated at near confluence in 96-well tissue culture plates (Costar). Cells were maintained in DMEM containing 10% FBS and penicillin/streptomycin in tissue culture flasks. Cells were harvested by trypsinization, resuspended in the basal medium and counted. NRK 52E cells were plated at a density of 4-5×10^4 cells/well. After a 24-h attachment/acclimation interval, the tissue culture media was aspirated and replaced with the appropriate test solution. For most experiments, 8 wells were used for each solution, i.e., each solution was tested in one column of 8 replicate wells. […] Plates were incubated for 24 or 72 h and observed under phase contrast microscopy. All solutions were aspirated and replaced with fresh DMEM containing Alamar blue dye (10% vol/vol). Plates were incubated at 37° C. for an additional 6 h after which fluorescence was measured using a fluorimetric plate reader (Cytofluor). Data were collected as raw fluorescence units and expressed as a percentage of the solvent control using average values from all 8 wells for each group (mean fluorescence test/mean fluorescence control×100=% control fluorescence).
# Cell proliferation assay on normal rat kidney cells. To assess potential effects on cell proliferation, the Alamar blue assay was performed using NRK 52E cells. Cells were harvested as described for the toxicity assay and seeded in 96-well tissue culture plates at a density of about 3×10^3 cells/well and evaluated over a 96-h time frame. Cells were allowed to attach for 3 h in the basal, serum-containing DMEM medium. After attachment, the media was aspirated and replaced with test solutions according to the design described for the toxicity assay with the addition of the Alamar blue dye to each solution (as 10% vol/vol). The reduction of Alamar blue dye was measured in a fluorimetric plate reader (Cytofluor) at 24, 48, 72 and 96 h. Morphological observation was also performed to ensure that the cell patterns matched the fluorescence data. Data were collected as raw fluorescence units and expressed as a percentage of the solvent control using the average values from all 8 wells used for each group (mean fluorescence test/mean fluorescence control×100=% control fluorescence) at each time period. As a further check to ensure that Alamar blue was not itself exerting some growth or inhibitory effects the experiments were also performed by plating cells at the lower density with exposures for 72 h without Alamar blue in the media. After the 72-h growth period, the media was aspirated and fresh DMEM containing Alamar blue (10% vol/vol) was added to all wells. Cells were further incubated in the Alamar blue solution for 6 h and fluorescence measured and data collected and expressed as described.
compound,measurement,setting,value
"Nc1nc(=O)c2ncn([C@@H]3OC4COP(=O)(O)O[C@H]5[C@@H](O)[C@H](n6cnc7c(=O)nc(N)[nH]c76)O[C@@H]5COP(=O)(O)OC4C3O)c2[nH]1 (some centres unmarked) [c-di-GMP, Bis(3′-->5′)-cyclic diguanylic acid]",stability,[1]; physiological conditions,stable
same,solubility,[1]; water physiological saline,soluble
same,decrease in fluorescence,[2]; 72 h confluent cells,36%
same,decrease in fluorescence,[2]; 72 h non-confluent cells,14%
same,toxicity on normal rat kidney cells,"[2]; 400 μM, 24 h",nontoxic
same,fluorescence relative to the solvent control,"[2]; 20, 40, 100 μM",no decease in fluorescence relative to the solvent control
same,toxicity on NRK cells,"[2]; 200 and 400 μM, 72 h exposure",toxicity was observed
same,cytotoxicity on NRK cells,[2]; 24 h exposure,little evidence of cytotoxicity
same,cytotoxicity on normal rat kidney cells,[2]; all relevant biological concentrations / biologically relevant doses,no cytotoxicity
same,Fluorescence (% control),"[2]; c-di-GMP 20 μM, 24-h confluent",98.5 % control
same,Fluorescence (% control),"[2]; c-di-GMP 20 μM, 72-h confluent",98.0 % control
same,Fluorescence (% control),"[2]; c-di-GMP 20 μM, 72-h non-confluent",97.0 % control
same,Fluorescence (% control),"[2]; c-di-GMP 40 μM, 24-h confluent",99.4 % control
same,Fluorescence (% control),"[2]; c-di-GMP 40 μM, 72-h confluent",98.0 % control
same,Fluorescence (% control),"[2]; c-di-GMP 40 μM, 72-h non-confluent",99.0 % control
same,Fluorescence (% control),"[2]; c-di-GMP 100 μM, 24-h confluent",99.7 % control
same,Fluorescence (% control),"[2]; c-di-GMP 100 μM, 72-h confluent",92.2 % control
same,Fluorescence (% control),"[2]; c-di-GMP 200 μM, 24-h confluent",101.6 % control
same,Fluorescence (% control),"[2]; c-di-GMP 200 μM, 72-h confluent",64.2 % control
same,Fluorescence (% control),"[2]; c-di-GMP 200 μM, 72-h non-confluent",86.0 % control
same,Fluorescence (% control),"[2]; c-di-GMP 400 μM, 24-h confluent",96.2 % control
same,Fluorescence (% control),"[2]; c-di-GMP 400 μM, 72-h confluent",40.0 % control
same,Fluorescence (% control),"[2]; c-di-GMP 400 μM, 72-h non-confluent",3.0 % control
